Measurements as given in PMC10041521, “Fluorescent Activity-Based Probe To Image and Inhibit Factor XIa Activity in Human Plasma” (Journal of Medicinal Chemistry, 2023).
Several values for one entry are separate records, joined by “and”; a condition that tells them apart may be missing. Equal entries are not always repeated.

Key:
Format in all cases: biochemical
APC = biological target: T1, APC (Homo sapiens, UniProt P04070); experiment: Inhibition kinetics (kobs/I) of inhibitor and fluorescent ABP; conditions: pseudo-first-order, ABP/inhibitor 308 nM to 50 μM, 10 nM enzyme, substrate 154 μM SMA5, 37 °C, 30 min; mean ± s.d., n = 3; SD
T1 construct: from tissue; host or cells: fresh frozen plasma
Experimental: (§1) Protein C, factor X, and prothrombin were purified from fresh frozen plasma and then activated as previously described.[33]
(§2) All kinetic assays were performed using a spectrofluorometer (Molecular Devices SpectraMax Gemini XPS) on 96-well, white, flat bottom, nontreated plates (Corning). The parameters were as follows: excitation/emission wavelength, 355/460 nm (cutoff, 455 nm); varying concentrations of substrates, ABPs, inhibitor, and enzymes. The assay buffer (20 mM Tris-base, 150 mM NaCl, 5 mM CaCl2, pH 7.4) was prepared at room temperature, and the enzyme kinetic studies were performed at 37 °C. All enzymes were preincubated in assay buffer for 15 min at 37 °C before addition to the wells. Each assay was repeated at least twice, and the data represent the average of these repetitions. The obtained results were analyzed using SoftMax (Molecular Devices), GraphPad Prism, and Microsoft Excel software.
(§3) The kobs/I parameters for APC, thrombin, fXa, and fXIa were measured under pseudo-first-order conditions. […] Next, 60 μL of APC, thrombin, fXa, or fXIa (at a concentration of 10 nM) preincubated at 37 °C was added, and the fluorescence increase over time was measured (λex = 355 nm, λem = 460 nm) for 30 min. The kobs/I parameters were calculated in GraphPad Prism and Microsoft Excel software.[41]

fXa = biological target: T2, fXa (Homo sapiens, UniProt P00742); experiment: as above; conditions: pseudo-first-order, ABP/inhibitor 308 nM to 50 μM, 10 nM enzyme, substrate 50 μM SMII18, 37 °C, 30 min; mean ± s.d., n = 3; SD
T2 construct: from tissue; host or cells: fresh frozen plasma
Experimental: as §1, §2, §3

fXIa [1] = biological target: T3, fXIa (Homo sapiens, UniProt P03951); experiment: as above; set-up: complete conversion of the single chain zymogen to the two-chain active form; made in house; host or cells: HEK293 cells expressing EBNA (pCEP4 vector); conditions: pseudo-first-order, ABP/inhibitor 308 nM to 50 μM, 10 nM enzyme, substrate 100 μM SMX1, 37 °C, 30 min, corrected for substrate KM; mean ± s.d., n = 3; SD
Experimental: as §2
The kobs/I parameters for APC, thrombin, fXa, and fXIa were measured under pseudo-first-order conditions. Inhibitor and ABP were serially diluted in assay buffer until the seventh well to obtain concentrations ranging from 308 nM to 50 μM. […] Next, 60 μL of APC, thrombin, fXa, or fXIa (at a concentration of 10 nM) preincubated at 37 °C was added, and the fluorescence increase over time was measured (λex = 355 nm, λem = 460 nm) for 30 min. The kobs/I parameters were calculated in GraphPad Prism and Microsoft Excel software.[41]

fXIa [2] = biological target: T3, fXIa; experiment: Labeling of purified coagulation factors with ABPs, SDS-PAGE and blot; set-up: complete conversion of the single chain zymogen to the two-chain active form; made in house; host or cells: HEK293 cells expressing EBNA (pCEP4 vector); conditions: 200 nM fXIa preincubated with 5 μM inhibitor for 60 min, then probe 1:1, 30 min
Experimental: To determine biotin-labeled ABPs selectivity, four purified coagulation factors (APC, thrombin, fXa, and fXIa) with a constant concentration of 200 nM were incubated separately with each probe (the probe/enzyme ratio was 1) in assay buffer for 30 min at 37 °C. Each enzyme was incubated with each probe in a volume of 40 μL followed by reduction with 20 μL of 3 × SDS/DTT for 5 min at 95 °C. The first well was loaded with 0.5 μL of the protein marker PageRuler Prestained Protein Ladder (Thermo Scientific), and then 10 μL of each sample was run on a 12% (w/v) 15-well gel. SDS–PAGE separation was performed at 200 V for 39 min followed by a wet tank transfer to a nitrocellulose membrane (0.2 μm, Bio-Rad) at 10 V for 60 min. The membrane was blocked with 2.5% BSA in TBS-T (Tris-buffered saline with 0.1% (v/v) Tween 20) for 60 min at room temperature. Next, the membrane was incubated with fluorescent streptavidin Alexa Fluor 647 conjugate (dilution 1:10,000 in TBS-T with 1% BSA) for 60 min. The biotin-labeled ABPs were detected at 658 nm using an Azure Biosystems Sapphire Biomolecular Imager and Azure Spot Analysis software.
For fluorescently labeled probe sample preparation, electrophoresis and membrane transfer were performed as described above. When testing the inhibitor utility, 200 nM fXIa was incubated with inhibitor (final inhibitor concentration 5 μM) for 60 min prior to probe addition. After the membrane was blocked with 2.5% BSA in TBS-T (60 min), the labeled proteins were directly imaged with a […] laser using an Azure Biosystems Sapphire Biomolecular Imager and Azure Spot Analysis software.

T3 sequence (P03951 388-625 limits assumed): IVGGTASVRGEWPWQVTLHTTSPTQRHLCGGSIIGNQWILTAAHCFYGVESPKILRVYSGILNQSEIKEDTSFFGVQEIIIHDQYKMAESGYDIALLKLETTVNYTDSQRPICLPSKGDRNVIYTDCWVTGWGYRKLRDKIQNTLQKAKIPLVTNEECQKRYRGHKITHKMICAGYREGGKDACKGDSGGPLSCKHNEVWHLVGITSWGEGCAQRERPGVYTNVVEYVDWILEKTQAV
T3 sequence (P03951 19-387 partner limits assumed): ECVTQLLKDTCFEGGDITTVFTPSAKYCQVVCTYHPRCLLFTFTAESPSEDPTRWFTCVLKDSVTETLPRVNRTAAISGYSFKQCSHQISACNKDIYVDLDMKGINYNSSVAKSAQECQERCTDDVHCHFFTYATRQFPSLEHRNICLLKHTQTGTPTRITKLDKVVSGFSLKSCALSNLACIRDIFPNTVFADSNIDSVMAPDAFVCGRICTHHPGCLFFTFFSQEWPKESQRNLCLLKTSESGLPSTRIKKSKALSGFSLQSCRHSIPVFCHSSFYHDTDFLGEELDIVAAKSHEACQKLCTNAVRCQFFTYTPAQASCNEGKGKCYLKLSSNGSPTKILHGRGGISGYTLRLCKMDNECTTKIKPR
T1 sequence (P04070 212-461 limits assumed): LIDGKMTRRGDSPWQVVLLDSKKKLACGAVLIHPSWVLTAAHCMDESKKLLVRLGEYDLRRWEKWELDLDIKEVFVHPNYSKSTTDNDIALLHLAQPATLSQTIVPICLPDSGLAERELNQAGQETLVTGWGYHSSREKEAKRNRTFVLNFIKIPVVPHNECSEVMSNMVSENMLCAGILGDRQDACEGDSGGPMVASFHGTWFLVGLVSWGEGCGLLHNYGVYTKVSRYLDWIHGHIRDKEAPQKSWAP
T1 sequence (P04070 43-197 partner limits assumed): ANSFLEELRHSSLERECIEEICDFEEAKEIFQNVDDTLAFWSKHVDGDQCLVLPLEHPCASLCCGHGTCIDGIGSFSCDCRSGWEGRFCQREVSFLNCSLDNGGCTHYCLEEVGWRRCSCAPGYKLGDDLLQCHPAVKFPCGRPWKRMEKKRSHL
T2 sequence (P00742 235-488 limits assumed): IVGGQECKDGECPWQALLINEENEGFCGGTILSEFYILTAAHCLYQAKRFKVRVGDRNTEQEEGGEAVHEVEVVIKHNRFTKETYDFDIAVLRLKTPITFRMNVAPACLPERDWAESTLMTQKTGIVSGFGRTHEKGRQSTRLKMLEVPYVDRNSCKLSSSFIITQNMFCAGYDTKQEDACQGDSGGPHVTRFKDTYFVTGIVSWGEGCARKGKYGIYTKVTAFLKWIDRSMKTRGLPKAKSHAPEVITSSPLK
T2 sequence (P00742 41-179 partner limits assumed): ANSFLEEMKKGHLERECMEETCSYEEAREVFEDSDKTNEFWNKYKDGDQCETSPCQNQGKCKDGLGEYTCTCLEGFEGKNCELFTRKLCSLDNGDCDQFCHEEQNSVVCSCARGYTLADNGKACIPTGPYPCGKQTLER

For “Ac-Tyr(2,6-Cl2-Z)-Nle-Glu(Bzl)-ArgP(OPh)2 [I-SMXI5]”, the “kobs/I APC” value (APC) was 1,570 ± 20 M^-1 s^-1, the “kobs/I fXa” value (fXa) was 100 ± 13 M⁻¹ s⁻¹ and the “kobs/I fXIa” value (fXIa [1]) was 54,700 ± 2,800 M^-1 s^-1 and 54,700 ± 2800 M^-1 s^-1. For the same substance, the “effect of preblocking fXIa on P-SMXI52 labeling” value (fXIa [2]) was “completely inhibited the fluorescent signal”.
